Laboratory results taken from patent US12599136B2, “Substituted isophthalic acid diamides and their use as herbicides” (Bayer Aktiengesellschaft, priority 2020, dated 2026).

Assays:
Type in all cases: in vivo
Viola tricolor [1] = experiment: Pre-emergence herbicidal action against VIOTR
Outline: (§1)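 Sandy loam pots, seeds covered with soil, then surface-treated with WP or EC formulations at 600–800 l/ha water plus 0.2% wetting agent. Greenhouse, 3 weeks. Percent damage vs untreated controls.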

Hordeum murinum [2] = experiment: Post-emergence herbicidal action against HORMU
Outline: (§2)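 Herbicidal action is a visual percentage rating (0% = as untreated control, 100% = plants dead) made roughly 3 weeks after treatment. Plants were grown in sandy loam in the greenhouse and treated at the one-leaf stage, 2 to 3 weeks post-sowing. Treatment was a foliar spray of wettable-powder or emulsion-concentrate formulations at 600 to 800 l/ha water plus 0.2% wetting agent.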

Matricaria inodora [3] = experiment: Pre-emergence herbicidal action against MATIN; settings: visual score after 3 weeks vs untreated controls
Outline: as §1

Alopecurus myosuroides [4] = experiment: Pre-emergence herbicidal action against ALOMY; settings: visual score after 3 weeks vs untreated controls
Outline: as §1

Abutilon theophrasti [5] = experiment: Pre-emergence herbicidal action against ABUTH; settings: visual score after 3 weeks vs untreated controls
Outline: as §1

Echinochloa crus-galli [6] = experiment: Post-emergence herbicidal action against ECHCG; settings: visual assessment about 3 weeks after treatment
Outline: as §2

Viola tricolor [7] = experiment: Post-emergence herbicidal action against VIOTR
Outline: as §2

Pharbitis purpurea [8] = experiment: Pre-emergence herbicidal action against PHBPU; settings: visual score after 3 weeks vs untreated controls
Outline: as §1

Cyperus esculentus [9] = experiment: Post-emergence herbicidal action against CYPES; settings: 80 g/ha, visual assessment about 3 weeks after treatment
Outline: as §2

Matricaria inodora [10] = experiment: Post-emergence herbicidal action against MATIN; settings: visual assessment about 3 weeks after treatment
Outline: as §2

Veronica persica [11] = experiment: Post-emergence herbicidal action against VERPE; settings: 80 g/ha, visual assessment about 3 weeks after treatment
Outline: as §2

Amaranthus retroflexus [12] = experiment: Pre-emergence herbicidal action against AMARE; settings: visual score after 3 weeks vs untreated controls
Outline: as §1

Lolium rigidum [13] = experiment: Post-emergence herbicidal action against LOLRI; settings: 80 g/ha
Outline: as §2

Setaria viridis [14] = experiment: Pre-emergence herbicidal action against SETVI
Outline: as §1

Alopecurus myosuroides [15] = experiment: Post-emergence herbicidal action against ALOMY
Outline: as §2

Veronica persica [16] = experiment: Pre-emergence herbicidal action against VERPE
Outline: as §1

Hordeum murinum [17] = experiment: Pre-emergence herbicidal action against HORMU; settings: visual score after 3 weeks vs untreated controls
Outline: as §1

Cyperus esculentus [18] = experiment: Pre-emergence herbicidal action against CYPES; settings: visual score after 3 weeks vs untreated controls
Outline: as §1

Polygonum convolvulus [19] = experiment: Post-emergence herbicidal action against POLCO; settings: 80 g/ha, visual assessment about 3 weeks after treatment
Outline: as §2

Polygonum convolvulus [20] = experiment: Pre-emergence herbicidal action against POLCO
Outline: as §1

Avena fatua [21] = experiment: Post-emergence herbicidal action against AVEFA; settings: 80 g/ha, visual assessment about 3 weeks after treatment
Outline: as §2

Abutilon theophrasti [22] = experiment: Post-emergence herbicidal action against ABUTH
Outline: as §2

Lolium rigidum [23] = experiment: Pre-emergence herbicidal action against LOLRI
Outline: as §1

Pharbitis purpurea [24] = experiment: Post-emergence herbicidal action against PHBPU; settings: visual assessment about 3 weeks after treatment
Outline: as §2

Avena fatua [25] = experiment: Pre-emergence herbicidal action against AVEFA; settings: visual score after 3 weeks vs untreated controls
Outline: as §1

Setaria viridis [26] = experiment: Post-emergence herbicidal action against SETVI; settings: visual assessment about 3 weeks after treatment
Outline: as §2

Amaranthus retroflexus [27] = experiment: Post-emergence herbicidal action against AMARE; settings: visual assessment about 3 weeks after treatment
Outline: as §2

Echinochloa crus-galli [28] = experiment: Pre-emergence herbicidal action against ECHCG; settings: visual score after 3 weeks vs untreated controls
Outline: as §1

Stellaria media [29] = experiment: Pre-emergence herbicidal action against STEME
Outline: as §1

Stellaria media [30] = experiment: Post-emergence herbicidal action against STEME; settings: visual assessment about 3 weeks after treatment
Outline: as §2

Cn1nnnc1NC(=O)c1ccc(C(F)(F)F)c(C(=O)n2cccn2)c1Cl [Example 1-153]
Pre-emergence action against VIOTR (Viola tricolor [1]; 80 g/ha): 100%
Pre-emergence action against VIOTR (Viola tricolor [1]; 320 g/ha): 100%
Post-emergence action against HORMU in % (Hordeum murinum [2]; 20 g/ha): 80%
Post-emergence action against HORMU in % (Hordeum murinum [2]; 80 g/ha): 90%
Pre-emergence action against MATIN (Matricaria inodora [3]; 20 g/ha): 90%
Pre-emergence action against MATIN (Matricaria inodora [3]; 80 g/ha): 100%
Pre-emergence action against MATIN (Matricaria inodora [3]; 320 g/ha): 100%
Pre-emergence action against ALOMY (Alopecurus myosuroides [4]; 80 g/ha): 80%
Pre-emergence action against ALOMY (Alopecurus myosuroides [4]; 320 g/ha): 100%
Pre-emergence action against ABUTH (Abutilon theophrasti [5]; 20 g/ha): 100%
Pre-emergence action against ABUTH (Abutilon theophrasti [5]; 80 g/ha): 100%
Pre-emergence action against ABUTH (Abutilon theophrasti [5]; Dosage column 320 g/ha (heading prints 3200 g/ha)): 100%
Post-emergence action against ECHCG in % (Echinochloa crus-galli [6]; 5 g/ha): 90%
Post-emergence action against ECHCG in % (Echinochloa crus-galli [6]; 20 g/ha): 100%
Post-emergence action against ECHCG in % (Echinochloa crus-galli [6]; 80 g/ha): 100%
Post-emergence action against VIOTR in % (Viola tricolor [7]; 5 g/ha): 80%
Post-emergence action against VIOTR in % (Viola tricolor [7]; 20 g/ha): 90%
Post-emergence action against VIOTR in % (Viola tricolor [7]; 80 g/ha): 90%
Pre-emergence action against PHBPU (Pharbitis purpurea [8]; 80 g/ha): 90%
Pre-emergence action against PHBPU (Pharbitis purpurea [8]; 320 g/ha): 90%
Post-emergence action against CYPES in % (Cyperus esculentus [9]): 90%
Post-emergence action against MATIN in % (Matricaria inodora [10]; 5 g/ha): 90%
Post-emergence action against MATIN in % (Matricaria inodora [10]; 20 g/ha): 90%
Post-emergence action against MATIN in % (Matricaria inodora [10]; 80 g/ha): 100%
Post-emergence action against VERPE in % (Veronica persica [11]): 80%
Pre-emergence action against AMARE (Amaranthus retroflexus [12]; 20 g/ha): 100%
Pre-emergence action against AMARE (Amaranthus retroflexus [12]; 80 g/ha): 100%
Pre-emergence action against AMARE (Amaranthus retroflexus [12]; 320 g/ha): 100%
Post-emergence action against LOLRI in % (Lolium rigidum [13]): 90%
Pre-emergence action against SETVI (Setaria viridis [14]; 20 g/ha): 100%
Pre-emergence action against SETVI (Setaria viridis [14]; 80 g/ha): 100%
Pre-emergence action against SETVI (Setaria viridis [14]; 320 g/ha): 100%
Post-emergence action against ALOMY (Alopecurus myosuroides [15]; 5 g/ha): 80%
Post-emergence action against ALOMY (Alopecurus myosuroides [15]; 20 g/ha): 90%
Post-emergence action against ALOMY (Alopecurus myosuroides [15]; 80 g/ha): 90%
Pre-emergence action against VERPE (Veronica persica [16]; 80 g/ha): 90%
Pre-emergence action against VERPE (Veronica persica [16]; 320 g/ha): 100%
Pre-emergence action against HORMU (Hordeum murinum [17]; 80 g/ha): 80%
Pre-emergence action against HORMU (Hordeum murinum [17]; 320 g/ha): 100%
Pre-emergence action against CYPES (Cyperus esculentus [18]; 20 g/ha): 100%
Pre-emergence action against CYPES (Cyperus esculentus [18]; 80 g/ha): 100%
Pre-emergence action against CYPES (Cyperus esculentus [18]; 320 g/ha): 100%
Post-emergence action against POLCO in % (Polygonum convolvulus [19]): 90%
Pre-emergence action against POLCO (Polygonum convolvulus [20]; 80 g/ha): 90%
Pre-emergence action against POLCO (Polygonum convolvulus [20]; 320 g/ha): 100%
Post-emergence action against AVEFA in % (Avena fatua [21]): 100%
Post-emergence action against ABUTH (Abutilon theophrasti [22]; 5 g/ha): 90%
Post-emergence action against ABUTH (Abutilon theophrasti [22]; 20 g/ha): 90%
Post-emergence action against ABUTH (Abutilon theophrasti [22]; 80 g/ha): 90%
Pre-emergence action against LOLRI (Lolium rigidum [23]; 80 g/ha): 80%
Pre-emergence action against LOLRI (Lolium rigidum [23]; 320 g/ha): 90%
Post-emergence action against PHBPU in % (Pharbitis purpurea [24]; 5 g/ha): 80%
Post-emergence action against PHBPU in % (Pharbitis purpurea [24]; 20 g/ha): 90%
Post-emergence action against PHBPU in % (Pharbitis purpurea [24]; 80 g/ha): 90%
Pre-emergence action against AVEFA (Avena fatua [25]; 80 g/ha): 100%
Pre-emergence action against AVEFA (Avena fatua [25]; 320 g/ha): 100%
Post-emergence action against SETVI in % (Setaria viridis [26]; 20 g/ha): 100%
Post-emergence action against SETVI in % (Setaria viridis [26]; 80 g/ha): 100%
Post-emergence action against AMARE in % (Amaranthus retroflexus [27]; 5 g/ha): 100%
Post-emergence action against AMARE in % (Amaranthus retroflexus [27]; 20 g/ha): 100%
Post-emergence action against AMARE in % (Amaranthus retroflexus [27]; 80 g/ha): 100%
Pre-emergence action against ECHCG (Echinochloa crus-galli [28]; 20 g/ha): 100%
Pre-emergence action against ECHCG (Echinochloa crus-galli [28]; 80 g/ha): 100%
Pre-emergence action against ECHCG (Echinochloa crus-galli [28]; 320 g/ha): 100%
Pre-emergence action against STEME (Stellaria media [29]; 20 g/ha): 90%
Pre-emergence action against STEME (Stellaria media [29]; 80 g/ha): 90%
Pre-emergence action against STEME (Stellaria media [29]; 320 g/ha): 100%
Post-emergence action against STEME in % (Stellaria media [30]; 5 g/ha): 100%
Post-emergence action against STEME in % (Stellaria media [30]; 20 g/ha): 100%
Post-emergence action against STEME in % (Stellaria media [30]; 80 g/ha): 100%
